From patent US11179348B2, “Combination comprising pterostilbene for the treatment of cancer” (FUNDACIÓN UNIVERSIDAD CATÓLICA DE VALENCIA SAN VICENTE …, priority 2015, dated 2021)
Marks after values point to notes of the source that are not given here.

Tests used:
Parameters in all cases: species or system human
[1] = tested on: MDA-MB-231 breast adenocarcinoma; test: In vivo growth of MDA-MB-231 breast cancer xenografts; details: MDA-MB-231, day 35
Caco-2 cells = test: GSH levels and glutathione- and oxidative stress-related enzyme activities in Caco-2 cells growing in vivo; details: Caco-2, in vivo Pter, day 28
Protocol: (§1) To measure enzyme activity, isolated tumor cells were homogenized in 0.1 M phosphate buffer (pH 7.2) at 4° C. GCL and GSS activities were measured as described previously (Obrador, E. et al. Hepatology 35, 74-81 (2002)). GPX (selenium dependent) activity was measured as described by Flohé and Gunzler (Flohe, L. & Gunzler, W. A. Methods Enzymol 105, 114-121 (1984)) using H2O2 as a substrate. GSR activity was determined as described by Akerboom and Sies (Akerboom, T. P. et al, Bull Eur Physiopathol Respir 17 Suppl, 221-227 (1981)). GGT activity was measured as described previously (Obrador, E. et al. Hepatology 35, 74-81 (2002)). GST activity was measured using an assay kit from Sigma. TXNRD activity, defined by the concentration of sodium-lipoate (disulfide) reduced to dehydrolipoate (dithiol) per milligram protein, was measured as previously described (Javvadi, P. et al. Cancer Res 70, 1941-1950 (2010)). SOD activity was measured as described by Flohé and Otting (Flohe, L. & Otting, F. Methods Enzymol 105, 93-104 (1984).) using 2 mM cyanide in the assay medium to distinguish mangano-type enzyme (SOD2) from the cuprozinc type (SOD1). CAT activity was analyzed as described by Aebi (Aebi, H. Methods Enzymol 105, 121-126 (1984)). NOX activity was measured by chemiluminescence following the methodology of Wind et al. (Wind, S. et al. Comparative pharmacology of chemically distinct NADPH oxidase inhibitors. Br J Pharmacol 161, 885-898 (2010)). Protein concentration was determined with the Pierce BCA protein assay (Fisher Scientific, Waltham, Mass.).
(§2) GSH, GSSG, NADP^+ and NADPH Determination.
(§3) GSH and GSSG were determined, following procedures previously described (Obrador, E. et al. PLoS One 9, e96466 (2014)), by LC/MS using the same equipment described above for pterostilbene determination. Cell processing was performed according to published methodology, where rapid N-ethylmaleimide derivatization was used to prevent GSH auto-oxidation (Asensi, M. et al. Anal Biochem 217, 323-328 (1994)). NADP^+ and NADPH were quantitated using an assay kit from Sigma (St. Louis, Mo.).
Isolation of Tumor Cells from Mouse Xenografts Using Enzymatic Digestion and a double Ficoll gradient.
To maximize the amount of isolated cells, avoiding the use of RFP-transfected cells and subsequent laser microdissection, an alternative methodology was set up. To maximize cell yield and viability the following combination of enzymes was used: collagenase III (200 U/ml; Sigma-Aldrich), DNase I (200 U/ml; Sigma-Aldrich) and trypsin (5 mg/ml; Invitrogen), and a non-enzymatic dissociation buffer (NEDB, Invitrogen). Briefly, mice were killed, and tumors were removed (avoiding skin, muscle and fat) into cold culture media and processed immediately. The tumors were minced into 1-3 mm fragments, which were then incubated with the dissociation solution (see above) for 30 min at 37° C. The tumor fragments were mixed up and down every 10 min using a […] micropipette with a tip cut to a diameter adapted to tissue fragment size. After each incubation period, the fragments were filtered through a […] nylon mesh cell strainer (BD Biosciences, San Diego, Calif., USA). The released cells were centrifuged at 1200 r.p.m. for 2 min and stored in cold CO2-independent medium with 30% FCS at […]. Fresh dissociation solution was added to the remaining tissue fragments for 30 min. Dissociation was stopped when no additional cells were released. The fragments were pushed through a sieve and all cells from all incubation periods were pooled and counted.
The dissociated cells were layered onto a double Ficoll gradient (Histopaque; Sigma-Aldrich; densities 1.077 and 1.119) and spun at 700 g for 30 min at room temperature. Cells removed from both interfaces were pooled and washed two times in CO2-independent medium and stored at 4° C. Debris and red blood cell elimination was improved with the dual-density gradient. […]

[2] = tested on: BxPC-3 pancreatic cancer cells; test: Nrf2- and redox state-related enzyme activities and metabolites in BxPC-3 cells growing in vivo; details: BxPC-3, in vivo +Pter, day 35
Protocol: as §1, with “Mass.). […]” for “Mass.).”
Quantitative measurement of H2O2 and flow cytometry determination of O2^⋅− generation were performed as previously described (Benlloch, M. et al. J Biol Chem 281, 69-79 (2006)).
as §2, §3

## COc1cc(/C=C/c2ccc(O)cc2)cc(OC)c1 [Pter, trans-3,5-dimethoxy-4′-hydroxystilbene]
[1]
  Tumor vol.: 266 ± 89* mm^3
Caco-2 cells
  CAT: 0.7 ± 0.2 mU/10^6 cells
  GCL: 45 ± 14 mU/10^6 cells
  GSH: 8 ± 3 nmol/10^6 cells
  GSS: 5.5 ± 1.9 mU/10^6 cells
  GSSG: 0.2 ± 0.1 nmol/10^6 cells
  SOD1: 0.8 ± 0.3 U/10^6 cells
  SOD2: 0.04 ± 0.01 U/10^6 cells
[2]
  CAT: 1.0 ± 0.2 mU/10^6 cells
  G6PDH: 264 ± 56 mU/10^6 cells
  GCL: 36 ± 15 mU/10^6 cells
  GGT: 19.7 ± 3.7 mU/10^6 cells
  GPX: 9.2 ± 2.0 mU/10^6 cells
  GSH: 3.7 ± 1.1 nmol/10^6 cells
  GSH/GSSG: 12 ± 4
  GSR: 2.3 ± 0.7 mU/10^6 cells
  GSS: 4.0 ± 1.3 mU/10^6 cells
  GSSG: 0.3 ± 0.1 nmol/10^6 cells
  GST: 3.2 ± 1.0 mU/10^6 cells
  H2O2: 1.3 ± 0.2 nmol/10^6 cells × min
  IDH: 1.7 ± 0.5 U/10^6 cells
  ME: 40 ± 7 mU/10^6 cells
  NADPH: 0.03 ± 0.01 nmol/mg prot
  NADPH/NADP^+: 0.6 ± 0.2
  NADP^+: 0.05 ± 0.005 nmol/mg prot
  NOX: 89 ± 25 R.L.U./10^6 cells
  O2′−: 5.9 ± 1.7 ΔFL1, a.u.
  SOD1: 0.1 ± 0.05 U/10^6 cells
  SOD2: 0.05 ± 0.02 U/10^6 cells
  TXN: 0.2 ± 0.1 μg/10^6 cells
  TXNRD: 0.8 ± 0.2 U/10^6 cells
